The subject of assay [1] is Osteoclast precursor cells. The assay is described as follows: Osteoclast differentiation assay (acid phosphatase readout). It is filed as cell-based. As for the experimental part:
Further, an osteoclast differentiation assay is used to assess the efficacy of Fms inhibitors for treating bone disease such as osteoarthritis. On day 0, Osteoclast Medium BulletKit (Lonza catalog #PT-8001, containing Media, FBS, L-Glutamine, PenStrep, RANKL, and M-CSF) media is thawed and the FBS, L-glutamine and PenStrep from the kit is added to 100 mL of Osteoclast Precursor Basal medium to provide the Osteoclast Precursor Growth Medium (OPGM). This is warmed to 37° C. Osteoclast precursor cells (Lonza catalog #2T-110) frozen in cryovial are warmed to 37° C. and transferred to a 50 mL conical tube. The cryovial is rinsed with OPGM and added dropwise to the conical tube of cells with swirling, then the volume is adjusted to 20-30 mL with addition of OPGM. The cells are centrifuged at 200×g for 15 minutes at room temperature and all but approximately 3 mL of supernatant is removed to a new conical tube. The cells are suspended in the remaining supernatant and the volume is adjusted to 10-15 mL with OPGM added dropwise with swirling. The cells are centrifuged at 200×g for 15 minutes at room temperature and all but approximately 1 mL of supernatant is removed. The cells are resuspended in the remaining supernatant, counted, and the volume adjusted with an appropriate amount of OPGM to provide approximately 1×10^5 cells/mL. A 0.1 mL aliquot of cells is added to each well of a 96-well plate. Compound to be tested is prepared in DMSO for plating at a high concentration of 2.5 mM, with 8 point 1:3 serial dilutions. A 1 μL aliquot of each compound dilution is added to a 96 well v-bottom polypropylene plate and 0.124 mL of OPGM is added to the compound. Then 50 μL at of the compound in OPGM is added to the osteoclast precursor cells in 96-well plate (providing highest test concentration of 5 μM). RANKL (2 μg) from the BulletKit is reconstituted in 1 mL of OPGM, then vortexed and centrifuged briefly. A 792 μL at aliquot of RANKL is added to 6 mL of OPGM and 50 μL at is added to low control wells. Then 76.6 μL M-CSF (10 μg/mL) from the BulletKit is added to the remaining 5.8 mL of OPGM/RANKL solution (4×RANKL/M-CSF/OPGM). A 50 μL at aliquot of this is added to the remaining wells, and the remainder is stored at 4° C. for later use. The plate is incubated at 37° C. for 6 days, then the remaining OPGM/RANKL/M-CSF solution is warmed to 37° C. The remaining approximately 198 μL is combined with 6 mL of OPGM. The media is aspirated from the osteoclast wells and 100 μL of RANKL/OPGM is added to the low controls. The remaining RANKL/OPGM is combined with the approximately 18.5 μL of remaining M-CSF. The remaining 4×RANKL/M-CSF/OPGM from day 0 is diluted to 1× and combined with the freshly prepared solution. A 0.1 mL aliquot of this is added to each osteoclast well and incubated for 37° C. for 1 day. The Acid Phosphatase kit (Cayman Chemical catalog #10008051) is warmed to room temperature. The assay buffer is diluted 5 mL with 45 mL of water. For each plate, two substrate tablets are dissolved in 4.5 mL of the assay buffer, mixing by vortex to break up the tablet. Stop solution is diluted 12 mL with 36 mL of water. In a tissue culture hood, 20 μL of each osteoclast well supernatant is transferred to a 96 well plate. A 30 μL aliquot of the substrate solution is added to each well and incubated at 37° C. for 20 minutes, then added 100 μL stop solution to each well. The absorbance of each well is read at 405 nm on Safire plate reader. The absorbance reading is plotted vs. concentration to provide the IC50 for each compound.

The target of assay [2] is CYP3A4(BQ) (Homo sapiens, UniProt P08684). As to the kind of experiment: CYP3A4(BQ) inhibition. The class given is in vitro ADME. The note with it: CYP3A4, substrate BQ; read-out: Cyp IC50 3A4(BQ). A digest of the protocol:
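After 30 min incubation at 37° C, plates were read on a Tecan Safire 2 at 409 ex/460 em, and IC50 values came from signal plotted against compound concentration. Enzyme and substrate were sourced from BD Biosciences. The cofactor mix held 1.3% NADPH Regeneration system Solution A, 1.04% Solution B, 5% acetonitrile and 0.05% DMSO.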

The structures appear in SMILES notation.

By IC50 is commonly meant the concentration at which inhibition is half-maximal.

CYP3A4(BQ), sequence (P08684 whole entry): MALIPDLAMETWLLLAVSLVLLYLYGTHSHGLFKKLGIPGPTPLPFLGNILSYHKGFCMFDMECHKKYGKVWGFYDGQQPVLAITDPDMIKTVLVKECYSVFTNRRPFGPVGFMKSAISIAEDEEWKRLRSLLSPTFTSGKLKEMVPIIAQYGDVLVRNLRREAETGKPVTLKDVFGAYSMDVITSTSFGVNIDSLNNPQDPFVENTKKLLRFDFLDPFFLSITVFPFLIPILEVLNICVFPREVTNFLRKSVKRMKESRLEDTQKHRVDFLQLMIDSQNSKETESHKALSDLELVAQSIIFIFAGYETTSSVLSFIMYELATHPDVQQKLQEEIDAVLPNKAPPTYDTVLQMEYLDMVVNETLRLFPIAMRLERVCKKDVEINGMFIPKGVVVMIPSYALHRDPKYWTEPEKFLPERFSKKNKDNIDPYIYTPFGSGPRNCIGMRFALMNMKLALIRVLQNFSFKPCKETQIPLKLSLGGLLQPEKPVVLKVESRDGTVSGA

For `FC1(F)CCC(Nc2ncc(Cc3c[nH]c4ncc(Cl)cc34)cn2)CC1` [Compound P-3004], the figures for the IC50 in assay [1] and in assay [2] were less than 100 nM and greater than 10000 nM, respectively.

The compound `Clc1cnc2[nH]cc(Cc3cnc(NC4CCCCCC4)nc3)c2c1` [Compound P-3006, [5-(5-Chloro-1H-pyrrolo[2,3-b]pyridin-3-ylmethyl)-pyrimidin-2-yl]-cycloheptyl-amine] had an IC50 in assay [1] of less than 100 nM.

In the case of `COc1ccc(Nc2ccc(Cc3c[nH]c4ncc(C)cc34)c(F)n2)cn1` [Compound P-3019, [6-fluoro-5-(5-methyl-1H-pyrrolo[2,3-b]pyridin-3-ylmethyl)-pyridin-2-yl]-(6-methoxy-pyridin-3-yl)-amine], the IC50 in assay [1] was less than 100 nM; in assay [2], greater than 10000 nM.

The compound `CCOc1ccc(Nc2ncc(Cc3c[nH]c4ncc(C)cc34)cn2)cn1` [Compound P-3027, (6-Ethoxy-pyridin-3-yl)-[5-(5-methyl-1H-pyrrolo[2,3-b]pyridin-3-ylmethyl)-pyrimidin-2-yl]-amine] returned an IC50 in assay [1] of less than 100 nM.

As to `CCn1cc(Nc2ncc(Cc3c[nH]c4ncc(C)cc34)cn2)cn1` [Compound P-3036, (1-Ethyl-1H-pyrazol-4-yl)-[5-(5-methyl-1H-pyrrolo[2,3-b]pyridin-3-ylmethyl)-pyrimidin-2-yl]-amine], in assay [1], the IC50 was less than 100 nM.

The compound `CCOc1ccc(Nc2ccc(Cc3c[nH]c4ncc(C)cc34)c(F)n2)cn1` [Compound P-3039, (6-ethoxy-pyridin-3-yl)-[6-fluoro-5-(5-methyl-1H-pyrrolo[2,3-b]pyridin-3-ylmethyl)-pyridin-2-yl]-amine] gave an IC50 in assay [1] of less than 100 nM.

For `Cc1cnc2[nH]cc(Cc3ccc(Nc4ccc(C)nc4)nc3F)c2c1` [Compound P-3041, [6-Fluoro-5-(5-methyl-1H-pyrrolo[2,3-b]pyridin-3-ylmethyl)-pyridin-2-yl]-(6-methyl-pyridin-3-yl)-amine], the IC50 in assay [1] was less than 100 nM; in assay [2] it was greater than 10000 nM.

In assay [1], `Cc1ccc(Nc2ccc(Cc3c[nH]c4ncc(Cl)cc34)c(F)n2)cn1` [Compound P-3042, [5-(5-Chloro-1H-pyrrolo[2,3-b]pyridin-3-ylmethyl)-6-fluoro-pyridin-2-yl]-(6-methyl-pyridin-3-yl)-amine] yielded an IC50 of less than 100 nM.

Turning to `COc1ccc(Nc2ccc(Cc3c[nH]c4ncnc(OC)c34)c(F)n2)cn1` [Compound P-4001, [6-Fluoro-5-(4-methoxy-7H-pyrrolo[2,3-d]pyrimidin-5-ylmethyl)-pyridin-2-yl]-(6-methoxy-pyridin-3-yl)-amine], the IC50 in assay [1] is less than 100 nM.

With `COc1ncnc2[nH]cc(Cc3ccc(Nc4ccc(C5CC5)nc4)nc3F)c12` [Compound P-4004, (6-Cyclopropyl-pyridin-3-yl)-[6-fluoro-5-(4-methoxy-7H-pyrrolo[2,3-d]pyrimidin-5-ylmethyl)-pyridin-2-yl]-amine], the IC50 in assay [1] was less than 100 nM; in assay [2] it was greater than 10000 nM.

Consider `CCOc1ccc(Nc2ccc(Cc3c[nH]c4ncnc(OC)c34)c(F)n2)cn1` [Compound P-4005, (6-Ethoxy-pyridin-3-yl)-[6-fluoro-5-(4-methoxy-7H-pyrrolo[2,3-d]pyrimidin-5-ylmethyl)-pyridin-2-yl]-amine], for which the IC50 in assay [1] was less than 100 nM; in assay [2] it was greater than 10000 nM.

For the compound `CCOc1ccc(Nc2ccc(Cc3c[nH]c4ncnc(C)c34)c(F)n2)cn1` [Compound P-4006, (6-Ethoxy-pyridin-3-yl)-[6-fluoro-5-(4-methyl-7H-pyrrolo[2,3-d]pyrimidin-5-ylmethyl)-pyridin-2-yl]-amine], the results for the IC50 in assay [1] and in assay [2] were less than 100 nM and greater than 10000 nM, respectively.

For the compound `CCc1ccc(Nc2ccc(Cc3c[nH]c4ncnc(OC)c34)c(F)n2)cn1` [Compound P-4007, (6-Ethyl-pyridin-3-yl)-[6-fluoro-5-(4-methoxy-7H-pyrrolo[2,3-d]pyrimidin-5-ylmethyl)-pyridin-2-yl]-amine], the 50% inhibitory concentration (IC50) in assay [1] is less than 100 nM; in assay [2], greater than 10000 nM.

As for `CCOc1ccc(Nc2ccc(Cc3c[nH]c4ncnc(OCCOC)c34)c(F)n2)cn1` [Compound P-4008, (6-Ethoxy-pyridin-3-yl)-{6-fluoro-5-[4-(2-methoxy-ethoxy)-7H-pyrrolo[2,3-d]pyrimidin-5-ylmethyl]-pyridin-2-yl}-amine], the IC50 in assay [1] is less than 100 nM; in assay [2], greater than 10000 nM.

With `CCc1ccc(Nc2ccc(Cc3c[nH]c4ncnc(C)c34)c(F)n2)cn1` [Compound P-4009, (6-Ethyl-pyridin-3-yl)-[6-fluoro-5-(4-methyl-7H-pyrrolo[2,3-d]pyrimidin-5-ylmethyl)-pyridin-2-yl]-amine], the IC50 is less than 100 nM in assay [1] and greater than 10000 nM in assay [2].

Turning to `COc1ncnc2[nH]cc(Cc3ccc(Nc4ccc(C)nc4)nc3F)c12` [Compound P-4010, [6-Fluoro-5-(4-methoxy-7H-pyrrolo[2,3-d]pyrimidin-5-ylmethyl)-pyridin-2-yl]-(6-methyl-pyridin-3-yl)-amine], the half-maximal inhibitory concentration (IC50) in assay [1] was less than 100 nM; in assay [2] it was greater than 10000 nM.

Turning to `CCn1cc(Nc2ccc(Cc3c[nH]c4ncnc(OC)c34)c(F)n2)cn1` [Compound P-4011, (1-Ethyl-1H-pyrazol-4-yl)-[6-fluoro-5-(4-methoxy-7H-pyrrolo[2,3-d]pyrimidin-5-ylmethyl)-pyridin-2-yl]-amine], the 50% inhibitory concentration (IC50) was less than 100 nM in assay [1] and greater than 10000 nM in assay [2].

`CCOc1ncnc2[nH]cc(Cc3ccc(Nc4cnn(CC)c4)nc3F)c12` [Compound P-4012, [5-(4-Ethoxy-7H-pyrrolo[2,3-d]pyrimidin-5-ylmethyl)-6-fluoro-pyridin-2-yl]-(1-ethyl-1H-pyrazol-4-yl)-amine]: the figures for the IC50 in assay [1] and in assay [2] were less than 100 nM and greater than 10000 nM, respectively.

Consider `CCn1cc(Nc2ccc(Cc3c[nH]c4ncnc(C)c34)c(F)n2)cn1` [Compound P-4013, (1-Ethyl-1H-pyrazol-4-yl)-[6-fluoro-5-(4-methyl-7H-pyrrolo[2,3-d]pyrimidin-5-ylmethyl)-pyridin-2-yl]-amine], for which the IC50 in assay [1] was less than 100 nM; in assay [2], greater than 10000 nM.

With `CCn1cc(Nc2ccc(Cc3c[nH]c4ncnc(OCCOC)c34)c(F)n2)cn1` [Compound P-4014, (1-Ethyl-1H-pyrazol-4-yl)-{6-fluoro-5-[4-(2-methoxy-ethoxy)-7H-pyrrolo[2,3-d]pyrimidin-5-ylmethyl]-pyridin-2-yl}-amine], the IC50 is less than 100 nM in assay [1] and greater than 10000 nM in assay [2].

Regarding `COCCOc1ncnc2[nH]cc(Cc3ccc(Nc4ccc(C)nc4)nc3F)c12` [Compound P-4015, {6-Fluoro-5-[4-(2-methoxy-ethoxy)-7H-pyrrolo[2,3-d]pyrimidin-5-ylmethyl]-pyridin-2-yl}-(6-methyl-pyridin-3-yl)-amine], the IC50 is less than 100 nM in assay [1] and greater than 10000 nM in assay [2].

As for `CCc1ccc(Nc2ccc(Cc3c[nH]c4ncnc(OCCOC)c34)c(F)n2)cn1` [Compound P-4016, (6-Ethyl-pyridin-3-yl)-{6-fluoro-5-[4-(2-methoxy-ethoxy)-7H-pyrrolo[2,3-d]pyrimidin-5-ylmethyl]-pyridin-2-yl}-amine], the half-maximal inhibitory concentration (IC50) in assay [1] was less than 100 nM; in assay [2] it was greater than 10000 nM.

As for `COc1ccc(Nc2ccc(Cc3c[nH]c4ncnc(C5CC5)c34)c(F)n2)cn1` [Compound P-4023, [5-(4-cyclopropyl-7H-pyrrolo[2,3-d]pyrimidin-5-ylmethyl)-6-fluoro-pyridin-2-yl]-(6-methoxy-pyridin-3-yl)-amine], the IC50 in assay [1] is less than 100 nM; in assay [2], greater than 10000 nM.

Values taken from patent US8901118B2, “Compounds and methods for kinase modulation, and indications therefor” (Plexxikon Inc., priority 2010, dated 2014).
